# Measurements reported in patent publication US8138189B2, “Substituted benzene compounds as modulators of the glucocorticoid receptor” (Hoffman-La Roche Inc., priority 2009, dated 2012).
# pKi: −log10 of the molar value.
# Biological target: T1, full length human recombinant glucocorticoid receptor (Homo sapiens, UniProt P04150)
# T1 construct: partially purified full length human recombinant glucocorticoid receptor; purchased Panvera/Invitrogen PV4302
# T1 sequence (P04150 1-777): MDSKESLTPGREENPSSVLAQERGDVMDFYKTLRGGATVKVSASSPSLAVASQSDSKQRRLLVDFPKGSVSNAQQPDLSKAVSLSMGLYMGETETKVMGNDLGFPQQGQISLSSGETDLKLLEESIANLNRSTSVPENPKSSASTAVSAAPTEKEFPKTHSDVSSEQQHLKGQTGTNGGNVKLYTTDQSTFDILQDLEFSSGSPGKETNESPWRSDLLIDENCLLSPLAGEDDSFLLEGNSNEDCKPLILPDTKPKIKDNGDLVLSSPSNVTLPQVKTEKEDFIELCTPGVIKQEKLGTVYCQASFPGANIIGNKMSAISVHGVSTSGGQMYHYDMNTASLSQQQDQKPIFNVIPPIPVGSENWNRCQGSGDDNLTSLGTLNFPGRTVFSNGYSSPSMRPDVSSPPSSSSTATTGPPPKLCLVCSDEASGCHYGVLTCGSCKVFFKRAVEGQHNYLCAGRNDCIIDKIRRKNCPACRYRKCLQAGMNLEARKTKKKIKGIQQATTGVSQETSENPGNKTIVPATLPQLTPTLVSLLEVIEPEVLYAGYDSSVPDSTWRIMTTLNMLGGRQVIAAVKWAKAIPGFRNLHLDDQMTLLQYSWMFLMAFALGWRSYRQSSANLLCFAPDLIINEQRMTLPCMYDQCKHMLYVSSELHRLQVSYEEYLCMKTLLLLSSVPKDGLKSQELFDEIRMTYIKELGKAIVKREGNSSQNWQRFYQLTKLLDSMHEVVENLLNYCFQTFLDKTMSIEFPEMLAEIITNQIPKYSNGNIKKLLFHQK
# Experiment: Glucocorticoid Receptor Binding Assay (fluorescence polarization competitor assay, Fluormone GS Far Red tracer)
# How it was run: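 Partially purified full-length recombinant human GR with a stabilizing coactivator peptide was incubated with Fluormone GS Far Red tracer and serially diluted compound for 3 h at 22 °C in the dark, pH 7.4. Fluorescence polarization was read at 610-660 nm. IC50 came from sigmoidal fitting, and Ki from Cheng-Prusoff.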
row,SMILES,pKi
1,"CC(c1ccc(Nc2ccc(C(=O)O)cc2)cc1Cl)C(O)(c1ccnc(Cl)c1)C(F)(F)F (stereo not shown) [Example 77, 4-{3-Chloro-4-[2-(2-chloro-pyridin-4-yl)-3,3,3-trifluoro-2-hydroxy-1-methyl-propyl]-phenylamino}-benzoic acid]",7.86
2,"CC(c1ccc(N(c2ccc(C(=O)O)cn2)c2ccc(C(=O)O)cn2)cc1Cl)C(O)(c1ccnc(Cl)c1)C(F)(F)F (stereo not shown) [Example 78, 6,6′-(3-Chloro-4-(3-(2-chloropyridin-4-yl)-4,4,4-trifluoro-3-hydroxybutan-2-yl)phenylazanediyl)dinicotinic acid]",7.12
3,"CC(c1ccc(Oc2ccc(CC(=O)O)cc2)cc1Cl)C(O)(c1ccnc(Cl)c1)C(F)(F)F (stereo not shown) [Example 79, (4-{3-Chloro-4-[2-(2-chloro-pyridin-4-yl)-3,3,3-trifluoro-2-hydroxy-1-methyl-propyl]-phenoxy}-phenyl)-acetic acid]",7.87
4,"CC(c1ccc(Oc2ccc(C(=O)O)cc2)cc1Cl)C(O)(c1ccnc(Cl)c1)C(F)(F)F (stereo not shown) [Example 80, 4-{3-Chloro-4-[2-(2-chloro-pyridin-4-yl)-3,3,3-trifluoro-2-hydroxy-1-methyl-propyl]-phenoxy}-benzoic acid]",8.68
5,"CC(c1ccc(Oc2ccc(C(=O)O)nc2)cc1Cl)C(O)(c1ccnc(Cl)c1)C(F)(F)F (stereo not shown) [Example 81, 5-{3-Chloro-4-[2-(2-chloro-pyridin-4-yl)-3,3,3-trifluoro-2-hydroxy-1-methyl-propyl]-phenoxy}-pyridine-2-carboxylic acid]",7.58
6,"CC(c1ccc(Oc2ccc(C(=O)O)c(Cl)c2)cc1Cl)C(O)(c1ccnc(Cl)c1)C(F)(F)F (stereo not shown) [Example 82, 2-Chloro-4-{3-chloro-4-[2-(2-chloro-pyridin-4-yl)-3,3,3-trifluoro-2-hydroxy-1-methyl-propyl]-phenoxy}-benzoic acid]",8.29
7,"CC(c1ccc(Oc2ccc(C(=O)O)c(F)c2)cc1Cl)C(O)(c1ccnc(Cl)c1)C(F)(F)F (stereo not shown) [Example 83, 4-{3-Chloro-4-[2-(2-chloro-pyridin-4-yl)-3,3,3-trifluoro-2-hydroxy-1-methyl-propyl]-phenoxy}-2-fluoro-benzoic acid]",8.25
8,"CC(c1ccc(Oc2ccccc2C(=O)O)cc1Cl)C(O)(c1ccnc(Cl)c1)C(F)(F)F (stereo not shown) [Example 84, 2-{3-Chloro-4-[2-(2-chloro-pyridin-4-yl)-3,3,3-trifluoro-2-hydroxy-1-methyl-propyl]-phenoxy}-benzoic acid]",7.45
9,"CC(c1ccc(Oc2ccc(OCC(=O)O)cc2)cc1Cl)C(O)(c1ccnc(Cl)c1)C(F)(F)F (stereo not shown) [Example 85, (4-{3-Chloro-4-[2-(2-chloro-pyridin-4-yl)-3,3,3-trifluoro-2-hydroxy-1-methyl-propyl]-phenoxy}-phenoxy)-acetic acid]",8.85
10,"COc1cc(Oc2ccc(C(C)C(O)(c3ccnc(Cl)c3)C(F)(F)F)c(Cl)c2)ccc1C(=O)O (stereo not shown) [Example 86, 4-{3-Chloro-4-[2-(2-chloro-pyridin-4-yl)-3,3,3-trifluoro-2-hydroxy-1-methyl-propyl]-phenoxy}-2-methoxy-benzoic acid]",7.79
11,"CC(c1ccc(Oc2cccc(CC(=O)O)c2)cc1Cl)C(O)(c1ccnc(Cl)c1)C(F)(F)F (stereo not shown) [Example 87, (3-{3-Chloro-4-[2-(2-chloro-pyridin-4-yl)-3,3,3-trifluoro-2-hydroxy-1-methyl-propyl]-phenoxy}-phenyl)-acetic acid]",7.82
12,"CC(c1ccc(Oc2ccc(C(=O)O)cc2F)cc1Cl)C(O)(c1ccnc(Cl)c1)C(F)(F)F (stereo not shown) [Example 88, 4-{3-Chloro-4-[2-(2-chloro-pyridin-4-yl)-3,3,3-trifluoro-2-hydroxy-1-methyl-propyl]-phenoxy}-3-fluoro-benzoic acid]",8.92
13,"CC(c1ccc(Oc2ccc(C(=O)O)cc2Cl)cc1Cl)C(O)(c1ccnc(Cl)c1)C(F)(F)F (stereo not shown) [Example 89, 3-Chloro-4-{3-chloro-4-[2-(2-chloro-pyridin-4-yl)-3,3,3-trifluoro-2-hydroxy-1-methyl-propyl]-phenoxy}-benzoic acid]",8.47
14,"CC(c1ccc(Oc2ccc(Cl)c(C(=O)O)c2)cc1Cl)C(O)(c1ccnc(Cl)c1)C(F)(F)F (stereo not shown) [Example 90, 2-Chloro-5-{3-chloro-4-[2-(2-chloro-pyridin-4-yl)-3,3,3-trifluoro-2-hydroxy-1-methyl-propyl]-phenoxy}-benzoic acid]",8.35
15,"CC(c1ccc(Oc2ccc(F)c(C(=O)O)c2)cc1Cl)C(O)(c1ccnc(Cl)c1)C(F)(F)F (stereo not shown) [Example 91, 5-{3-Chloro-4-[2-(2-chloro-pyridin-4-yl)-3,3,3-trifluoro-2-hydroxy-1-methyl-propyl]-phenoxy}-2-fluoro-benzoic acid]",8.15
16,"CCOC(=O)c1ccc(COc2ccc(C(C)C(O)(c3ccnc(C)c3)C(F)(F)F)c(Cl)c2)cc1 (stereo not shown) [Example 93, 4-{3-Chloro-4-[3,3,3-trifluoro-2-hydroxy-1-methyl-2-(2-methyl-pyridin-4-yl)-propyl]-phenoxymethyl}-benzoic acid ethyl ester]",8.09
17,"Cc1cc(C(O)(C(C)c2ccc(OCc3ccc(C(=O)O)cc3)cc2Cl)C(F)(F)F)ccn1 (stereo not shown) [Example 94, 4-{3-Chloro-4-[3,3,3-trifluoro-2-hydroxy-1-methyl-2-(2-methyl-pyridin-4-yl)-propyl]-phenoxymethyl}-benzoic acid]",8.40
18,"COC(=O)c1ccc(COc2ccc(C(C)C(O)(c3ccnc(C)c3)C(F)(F)F)c(Cl)c2)c(OC)c1 (stereo not shown) [Example 95, 4-{3-Chloro-4-[3,3,3-trifluoro-2-hydroxy-1-methyl-2-(2-methyl-pyridin-4-yl)-propyl]-phenoxymethyl}-3-methoxy-benzoic acid methyl ester]",8.44
19,"COc1cc(C(=O)O)ccc1COc1ccc(C(C)C(O)(c2ccnc(C)c2)C(F)(F)F)c(Cl)c1 (stereo not shown) [Example 96, 4-{3-Chloro-4-[3,3,3-trifluoro-2-hydroxy-1-methyl-2-(2-methyl-pyridin-4-yl)-propyl]-phenoxymethyl}-3-methoxy-benzoic acid]",8.21
20,"CCOC(=O)c1ccc(COc2ccc(C(C)C(O)(c3ccnc(C)c3)C(F)(F)F)c(Cl)c2)cn1 (stereo not shown) [Example 97, 5-{3-Chloro-4-[3,3,3-trifluoro-2-hydroxy-1-methyl-2-(2-methyl-pyridin-4-yl)-propyl]-phenoxymethyl}-pyridine-2-carboxylic acid ethyl ester]",8.04
21,"Cc1cc(C(O)(C(C)c2ccc(OCc3ccc(C(=O)O)nc3)cc2Cl)C(F)(F)F)ccn1 (stereo not shown) [Example 98, 5-{3-Chloro-4-[3,3,3-trifluoro-2-hydroxy-1-methyl-2-(2-methyl-pyridin-4-yl)-propyl]-phenoxymethyl}-pyridine-2-carboxylic acid]",7.39
22,"COC(=O)c1ccnc(COc2ccc(C(C)C(O)(c3ccnc(C)c3)C(F)(F)F)c(Cl)c2)c1 (stereo not shown) [Example 99, 2-{3-Chloro-4-[3,3,3-trifluoro-2-hydroxy-1-methyl-2-(2-methyl-pyridin-4-yl)-propyl]-phenoxymethyl}-isonicotinic acid methyl ester]",8.04
23,"Cc1cc(C(O)(C(C)c2ccc(OCc3cc(C(=O)O)ccn3)cc2Cl)C(F)(F)F)ccn1 (stereo not shown) [Example 100, 2-{3-Chloro-4-[3,3,3-trifluoro-2-hydroxy-1-methyl-2-(2-methyl-pyridin-4-yl)-propyl]-phenoxymethyl}-isonicotinic acid]",7.46
24,"CCOC(=O)c1cc(COc2ccc(C(C)C(O)(c3ccnc(C)c3)C(F)(F)F)c(Cl)c2)ccn1 (stereo not shown) [Example 101, 4-{3-Chloro-4-[3,3,3-trifluoro-2-hydroxy-1-methyl-2-(2-methyl-pyridin-4-yl)-propyl]-phenoxymethyl}-pyridine-2-carboxylic acid ethyl ester]",8.03
25,"Cc1cc(C(O)(C(C)c2ccc(OCc3ccnc(C(=O)O)c3)cc2Cl)C(F)(F)F)ccn1 (stereo not shown) [Example 102, 4-{3-Chloro-4-[3,3,3-trifluoro-2-hydroxy-1-methyl-2-(2-methyl-pyridin-4-yl)-propyl]-phenoxymethyl}-pyridine-2-carboxylic acid]",7.69
26,"COC(=O)c1ccc(Oc2ccc(C(C)C(O)(c3ccnc(C)c3)C(F)(F)F)c(Cl)c2)nn1 (stereo not shown) [Example 104, 6-{3-Chloro-4-[3,3,3-trifluoro-2-hydroxy-1-methyl-2-(2-methyl-pyridin-4-yl)-propyl]-phenoxy}-pyridazine-3-carboxylic acid methyl ester]",7.06
27,"Cc1cc(C(O)(C(C)c2ccc(Oc3ccc(C(=O)O)nn3)cc2Cl)C(F)(F)F)ccn1 (stereo not shown) [Example 105, 6-{3-Chloro-4-[3,3,3-trifluoro-2-hydroxy-1-methyl-2-(2-methyl-pyridin-4-yl)-propyl]-phenoxy}-pyridazine-3-carboxylic acid]",6.44
28,"CCOC(=O)c1ccc(COc2ccc(C(C)C(O)(c3ccncc3)C(F)(F)F)c(Cl)c2)cc1 (stereo not shown) [Example 106, 4-[3-Chloro-4-(3,3,3-trifluoro-2-hydroxy-1-methyl-2-pyridin-4-yl-propyl)-phenoxymethyl]-benzoic acid ethyl ester]",7.33
